Where “and” joins values, the source holds several entries; their conditions need not be identical. Equal entries are not always repeated. Where two headings read alike, the source gives them in different places.
Assays:
[1] = target: T1, detergent-solubilized EmrE (Escherichia coli, UniProt P23895); assay: tryptophan fluorescence quenching titration (excitation […] nm); type: binding
T1 construct: full-length EmrE (110 aa), organic-extracted, solubilized in DDM, purified from E. coli BL21(DE3); unfused

[2] = target: the molecule itself; assay: SEC; detergent-free fusion proteins after affinity purification; SEC buffer 20 mM Tris pH 7.5, 50 mM NaCl, 1 mM EDTA pH 8.0; column calibrated with Bio-Rad standards; self-association of the fusion

Row | Molecule | stoichiometry N [2] | also measured
1 | CC[n+]1c(-c2ccccc2)c2cc(N)ccc2c2ccc(N)cc21 [ethidium bromide] | – | Kd ([1]; read-out: Kd): 5.4 ± 0.47 µM
2 | c1ccc([P+](c2ccccc2)(c2ccccc2)c2ccccc2)cc1 [tetraphenylphosphonium] | – | Kd ([1]; 20 mM Tris-HCl pH 7.5, 150 mM NaCl, 0.08% w/v DDM, 10 μM protein, room temperature): higher for ApoAI*-solubilized EmrE compared with its detergent-solubilized counterpart
3 | ΔspMBP-EmrE-ApoAI* (other) MNPYIYLGGAILAEVIGTTLMKFSEGFTRLWPSVGTIICYCASFWLLAQTLAYIPTGIAYAIWSGVGIVLISLLSWGFFGQRLDLPAIIGMMLICAGVLIINLLSRSTPHLKLLDNWDSVTSTFSKLREQLGPVTQEFWDNLEKETEGLRQEMSKDLEEVKAKVQPYLDDFQKKWQEEMELYRQKVEPLRAELQEGARQKLHELQEKLSPLGEEMRDRARAHVDALRTHLAPYSDELRQRLAARLEALKENGGARLAEYHAKATEHLSTLSEKAKPALEDLRQGLLPVLESFKVSFLSALEEYTKKLNTQ | 2 and 4 | –
4 | ΔspMBP-cyt b5-ApoAI* (other) MAEQSDEAVKYYTLEEIQKHNHSKSTWLILHHKVYDLTKFLEEHPGGEEVLREQAGGDATENFEDVGHSTDAREMSKTFIIGELHPDDRPKLNKPPETLITTIDSSSSWWTNWVIPAISAVAVALMYRLYMAEDLKLLDNWDSVTSTFSKLREQLGPVTQEFWDNLEKETEGLRQEMSKDLEEVKAKVQPYLDDFQKKWQEEMELYRQKVEPLRAELQEGARQKLHELQEKLSPLGEEMRDRARAHVDALRTHLAPYSDELRQRLAARLEALKENGGARLAEYHAKATEHLSTLSEKAKPALEDLRQGLLPVLESFKVSFLSALEEYTKKLNTQ | 8 and 4 | –

From publication PMC4403311, “Making water-soluble integral membrane proteins in vivo using an amphipathic protein fusion strategy” (Nature Communications, 2015)
